Results: patent US5530126A, “Process for the preparation of substituted 6-(pyrazol-3yl)-1,4-benzoxazin-3-ones” (Monsanto Company, priority 1994, dated 1996)

Key:
Type in all cases: in vivo
Velvetleaf [1] = assay: Post-emergence herbicide test; conditions: Abutilon theophrasti, read-out: % plant inhibition (Vele); for inhibition at 11210 g/ha: 11.21 kg/ha; for inhibition at 1120 g/ha: 1.12 kg/ha
Procedure, shortened: (§1)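 Emerged annual and perennial plants (2–3 weeks) are sprayed with test compound in a carrier with ~0.4% emulsifier, 1870 L/Ha total volume, atomizer pressure 10 psig. Effects are expressed as % inhibition versus control at approximately 10–14 days and occasionally 24–28 days.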

Cocklebur [2] = assay: Post-emergence herbicide test; conditions: Xanthium strumarium, read-out: % plant inhibition (Cobu); for inhibition at 11210 g/ha: 11.21 kg/ha; for inhibition at 1120 g/ha: 1.12 kg/ha
Procedure, shortened: as §1

Seedling johnsongrass [3] = assay: Post-emergence herbicide test; conditions: Sorghum halepense, read-out: % plant inhibition (Sejg); for inhibition at 11210 g/ha: 11.21 kg/ha; for inhibition at 1120 g/ha: 1.12 kg/ha
Procedure, shortened: as §1

Downy Brome [4] = assay: Post-emergence herbicide test; conditions: Bromus tectorum, read-out: % plant inhibition (Dobr); for inhibition at 11210 g/ha: 11.21 kg/ha; for inhibition at 1120 g/ha: 1.12 kg/ha
Procedure, shortened: as §1

Indian Mustard [5] = assay: Post-emergence herbicide test; conditions: Brassica juncea, read-out: % plant inhibition (Inmu); for inhibition at 11210 g/ha: 11.21 kg/ha; for inhibition at 1120 g/ha: 1.12 kg/ha
Procedure, shortened: as §1

Barnyardgrass [6] = assay: Post-emergence herbicide test; conditions: Echinochloa crus-galli, read-out: % plant inhibition (Bygr); for inhibition at 11210 g/ha: 11.21 kg/ha; for inhibition at 1120 g/ha: 1.12 kg/ha
Procedure, shortened: as §1

Wild buckwheat [7] = assay: Post-emergence herbicide test; conditions: Fallopia convolvulus, read-out: % plant inhibition (Wibw); for inhibition at 11210 g/ha: 11.21 kg/ha; for inhibition at 1120 g/ha: 1.12 kg/ha
Procedure, shortened: as §1

Yellow nutsedge [8] = assay: Post-emergence herbicide test; conditions: Cyperus, read-out: % plant inhibition (Yens); for inhibition at 11210 g/ha: 11.21 kg/ha; for inhibition at 1120 g/ha: 1.12 kg/ha
Procedure, shortened: as §1

Annual bluegrass [9] = assay: Post-emergence herbicide test; conditions: read-out: % plant inhibition (Anbg); for inhibition at 11210 g/ha: 11.21 kg/ha; for inhibition at 1120 g/ha: 1.12 kg/ha
Procedure, shortened: as §1

Morningglory [10] = assay: Post-emergence herbicide test; conditions: Ipomoea, read-out: % plant inhibition (Mogl); for inhibition at 11210 g/ha: 11.21 kg/ha; for inhibition at 1120 g/ha: 1.12 kg/ha
Procedure, shortened: as §1

Velvetleaf [11] = assay: Pre-emergence herbicide test; conditions: Abutilon theophrasti, read-out: % plant inhibition (Vele); for inhibition at 11210 g/ha: 11.21 kg/ha; for inhibition at 1120 g/ha: 1.12 kg/ha
Procedure, shortened: (§2)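 In this greenhouse test, seeds on compacted topsoil receive the active ingredient in an organic solvent or aqueous carrier, are covered with untreated soil and watered from below; percent inhibition is scored approximately 11 days later.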

Cocklebur [12] = assay: Pre-emergence herbicide test; conditions: Xanthium strumarium, read-out: % plant inhibition (Cobu); for inhibition at 11210 g/ha: 11.21 kg/ha; for inhibition at 1120 g/ha: 1.12 kg/ha
Procedure, shortened: as §2

Seedling johnsongrass [13] = assay: Pre-emergence herbicide test; conditions: Sorghum halepense, read-out: % plant inhibition (Sejg); for inhibition at 11210 g/ha: 11.21 kg/ha; for inhibition at 1120 g/ha: 1.12 kg/ha
Procedure, shortened: as §2

Downy Brome [14] = assay: Pre-emergence herbicide test; conditions: Bromus tectorum, read-out: % plant inhibition (Dobr); for inhibition at 11210 g/ha: 11.21 kg/ha; for inhibition at 1120 g/ha: 1.12 kg/ha
Procedure, shortened: as §2

Indian Mustard [15] = assay: Pre-emergence herbicide test; conditions: Brassica juncea, read-out: % plant inhibition (Inmu); for inhibition at 11210 g/ha: 11.21 kg/ha; for inhibition at 1120 g/ha: 1.12 kg/ha
Procedure, shortened: as §2

Barnyardgrass [16] = assay: Pre-emergence herbicide test; conditions: Echinochloa crus-galli, read-out: % plant inhibition (Bygr); for inhibition at 11210 g/ha: 11.21 kg/ha; for inhibition at 1120 g/ha: 1.12 kg/ha
Procedure, shortened: as §2

Wild buckwheat [17] = assay: Pre-emergence herbicide test; conditions: Fallopia convolvulus, read-out: % plant inhibition (Wibw); for inhibition at 11210 g/ha: 11.21 kg/ha; for inhibition at 1120 g/ha: 1.12 kg/ha
Procedure, shortened: as §2

Yellow nutsedge [18] = assay: Pre-emergence herbicide test; conditions: Cyperus, read-out: % plant inhibition (Yens); for inhibition at 11210 g/ha: 11.21 kg/ha; for inhibition at 1120 g/ha: 1.12 kg/ha
Procedure, shortened: as §2

Annual bluegrass [19] = assay: Pre-emergence herbicide test; conditions: read-out: % plant inhibition (Anbg); for inhibition at 11210 g/ha: 11.21 kg/ha; for inhibition at 1120 g/ha: 1.12 kg/ha
Procedure, shortened: as §2

Morningglory [20] = assay: Pre-emergence herbicide test; conditions: Ipomoea, read-out: % plant inhibition (Mogl); for inhibition at 11210 g/ha: 11.21 kg/ha; for inhibition at 1120 g/ha: 1.12 kg/ha
Procedure, shortened: as §2

SMILES	inhibition at 11210 g/ha (Velvetleaf [1])	inhibition at 11210 g/ha (Cocklebur [2])	inhibition at 11210 g/ha (Seedling johnsongrass [3])	inhibition at 11210 g/ha (Downy Brome [4])	inhibition at 11210 g/ha (Indian Mustard [5])	inhibition at 11210 g/ha (Barnyardgrass [6])	inhibition at 11210 g/ha (Wild buckwheat [7])	inhibition at 11210 g/ha (Yellow nutsedge [8])	inhibition at 11210 g/ha (Annual bluegrass [9])	inhibition at 11210 g/ha (Morningglory [10])	inhibition at 11210 g/ha (Velvetleaf [11])	inhibition at 11210 g/ha (Cocklebur [12])	inhibition at 11210 g/ha (Seedling johnsongrass [13])	inhibition at 11210 g/ha (Downy Brome [14])	inhibition at 11210 g/ha (Indian Mustard [15])	inhibition at 11210 g/ha (Barnyardgrass [16])	inhibition at 11210 g/ha (Wild buckwheat [17])	inhibition at 11210 g/ha (Yellow nutsedge [18])	inhibition at 11210 g/ha (Annual bluegrass [19])	inhibition at 11210 g/ha (Morningglory [20])	other results
Cn1nc(-c2cc(CC(=O)NCCCl)c(Cl)cc2F)c(Cl)c1C(F)(F)F [Compound 113]	50%	20%	0%	0%	0%	0%	20%	0%	0%	30%	80%	0%	30%	0%	80%	80%	40%	0%	10%	30%	
Cn1nc(-c2cc([N+](=O)[O-])c(Cl)cc2Cl)c(Cl)c1C(F)(F)F [Compound 86]	100%	70%	80%	0%	60%	80%	100%	10%	30%	100%	90%	10%	0%	0%	30%	0%	100%	0%	0%	20%	
Cn1nc(C(F)(F)F)c(Cl)c1-c1ccc(F)cc1F [Compound 75]	0%	0%	0%	0%	0%	0%	60%	0%	0%	10%	80%	10%	50%	20%	30%	20%	50%	20%	0%	90%	
Cc1cc(-c2nn(C)c(C(F)F)c2Cl)c(F)cc1Cl [Compound 126]																					inhibition at 1120 g/ha (Velvetleaf [1]): 90%; inhibition at 1120 g/ha (Cocklebur [2]): 30%; inhibition at 1120 g/ha (Seedling johnsongrass [3]): 30%; inhibition at 1120 g/ha (Downy Brome [4]): 0%; inhibition at 1120 g/ha (Indian Mustard [5]): 40%; inhibition at 1120 g/ha (Barnyardgrass [6]): 50%; inhibition at 1120 g/ha (Wild buckwheat [7]): 80%; inhibition at 1120 g/ha (Yellow nutsedge [8]): 10%; inhibition at 1120 g/ha (Annual bluegrass [9]): 40%; inhibition at 1120 g/ha (Morningglory [10]): 60%; inhibition at 1120 g/ha (Velvetleaf [11]): 100%; inhibition at 1120 g/ha (Cocklebur [12]): 50%; inhibition at 1120 g/ha (Seedling johnsongrass [13]): 100%; inhibition at 1120 g/ha (Downy Brome [14]): 100%; inhibition at 1120 g/ha (Indian Mustard [15]): 100%; inhibition at 1120 g/ha (Barnyardgrass [16]): 100%; inhibition at 1120 g/ha (Wild buckwheat [17]): 100%; inhibition at 1120 g/ha (Yellow nutsedge [18]): 0%; inhibition at 1120 g/ha (Annual bluegrass [19]): 100%; inhibition at 1120 g/ha (Morningglory [20]): 100%
Cn1nc(-c2cc(N(S(C)(=O)=O)S(C)(=O)=O)c(Cl)cc2Cl)c(Cl)c1C(F)(F)F [Compound 87]	100%	50%	40%	0%	30%	20%	40%	10%	10%	70%	90%	10%	30%	20%	70%	40%	90%	10%	10%	70%	
Cn1nc(C(F)(F)F)c(Cl)c1-c1ccc(Cl)cc1 [Compound 66]	50%	0%	80%	30%	30%	20%	100%	0%	0%	70%	90%	20%	90%	60%	50%	10%	90%	0%	50%	100%	
Cn1nc(-c2ccc([N+](=O)[O-])cc2)c(Cl)c1C(F)(F)F [Compound 81]	80%	40%	70%	10%	10%	70%	90%	50%	0%	60%	90%	20%	90%	80%	20%	60%	100%	0%	60%	30%	
Cn1nc(-c2cc(O)c(Cl)cc2F)c(Cl)c1C(F)(F)Cl [Compound 329]																					inhibition at 1120 g/ha (Velvetleaf [1]): 100%; inhibition at 1120 g/ha (Cocklebur [2]): 90%; inhibition at 1120 g/ha (Seedling johnsongrass [3]): 90%; inhibition at 1120 g/ha (Downy Brome [4]): 90%; inhibition at 1120 g/ha (Indian Mustard [5]): 100%; inhibition at 1120 g/ha (Barnyardgrass [6]): 90%; inhibition at 1120 g/ha (Wild buckwheat [7]): 100%; inhibition at 1120 g/ha (Yellow nutsedge [8]): 0%; inhibition at 1120 g/ha (Annual bluegrass [9]): 90%; inhibition at 1120 g/ha (Morningglory [10]): 100%; inhibition at 1120 g/ha (Velvetleaf [11]): 100%; inhibition at 1120 g/ha (Cocklebur [12]): 0%; inhibition at 1120 g/ha (Seedling johnsongrass [13]): 0%; inhibition at 1120 g/ha (Downy Brome [14]): 0%; inhibition at 1120 g/ha (Indian Mustard [15]): 90%; inhibition at 1120 g/ha (Barnyardgrass [16]): 0%; inhibition at 1120 g/ha (Wild buckwheat [17]): 100%; inhibition at 1120 g/ha (Yellow nutsedge [18]): 0%; inhibition at 1120 g/ha (Annual bluegrass [19]): 0%; inhibition at 1120 g/ha (Morningglory [20]): 70%
CCOC(=O)CSCc1cc(-c2nn(C)c(C(F)(F)F)c2Cl)c(F)cc1Cl [Compound 123]																					inhibition at 1120 g/ha (Velvetleaf [1]): 100%; inhibition at 1120 g/ha (Cocklebur [2]): 70%; inhibition at 1120 g/ha (Seedling johnsongrass [3]): 50%; inhibition at 1120 g/ha (Downy Brome [4]): 60%; inhibition at 1120 g/ha (Indian Mustard [5]): 30%; inhibition at 1120 g/ha (Barnyardgrass [6]): 50%; inhibition at 1120 g/ha (Wild buckwheat [7]): 90%; inhibition at 1120 g/ha (Yellow nutsedge [8]): 20%; inhibition at 1120 g/ha (Annual bluegrass [9]): 0%; inhibition at 1120 g/ha (Morningglory [10]): 100%; inhibition at 1120 g/ha (Velvetleaf [11]): 100%; inhibition at 1120 g/ha (Cocklebur [12]): 50%; inhibition at 1120 g/ha (Seedling johnsongrass [13]): 40%; inhibition at 1120 g/ha (Downy Brome [14]): 70%; inhibition at 1120 g/ha (Indian Mustard [15]): 80%; inhibition at 1120 g/ha (Barnyardgrass [16]): 30%; inhibition at 1120 g/ha (Wild buckwheat [17]): 90%; inhibition at 1120 g/ha (Yellow nutsedge [18]): 30%; inhibition at 1120 g/ha (Annual bluegrass [19]): 0%; inhibition at 1120 g/ha (Morningglory [20]): 100%
